Patent US4698356A, “Anti-hypertensive agents” (University of Miami, priority 1979, dated 1987)

Target: T1, human urinary ACE (angiotensin converting enzyme) (Homo sapiens, UniProt P12821)
T1 construct: The enzyme preparation was ACE purified from human urine; from tissue; host or cells: human urine (enzyme purified as described by Ryan, J.W., et al., Tissue and Cell 10, 555 (1978))
Test: ACE activity assay (inhibition of hydrolysis of [3H]-Benzoyl-GlyHisLeu)
Format: biochemical
Conditions: read-out: I50
Experimental: These factors include the source of enzyme, its purity, the substrate used and its concentration, and the composition of the assay buffer.
ACE activity assay. […] To initiate the assay, 40 μl of enzyme and 10 μl of water or inhibitor dissolved in water were preincubated for five minutes at 37° C. […] To terminate the reaction, 1 ml of 0.1M HCl was added, following which 1 ml of ethyl acetate was added. The mixture was agitated on a rotary mixer and centrifuged briefly to separate the phases.
An aliquot, 500 μl, of the ethyl acetate layer was transferred to a liquid scintillation vial containing 10 ml of Riafluor, trademark New England Nuclear Corporation, Boston, Mass. For determination of I50 values, enzyme activity in the presence of inhibitor at a series of different concentrations was compared to activity in the absence of inhibitor.

T1 sequence (P12821 30-1232 limits assumed): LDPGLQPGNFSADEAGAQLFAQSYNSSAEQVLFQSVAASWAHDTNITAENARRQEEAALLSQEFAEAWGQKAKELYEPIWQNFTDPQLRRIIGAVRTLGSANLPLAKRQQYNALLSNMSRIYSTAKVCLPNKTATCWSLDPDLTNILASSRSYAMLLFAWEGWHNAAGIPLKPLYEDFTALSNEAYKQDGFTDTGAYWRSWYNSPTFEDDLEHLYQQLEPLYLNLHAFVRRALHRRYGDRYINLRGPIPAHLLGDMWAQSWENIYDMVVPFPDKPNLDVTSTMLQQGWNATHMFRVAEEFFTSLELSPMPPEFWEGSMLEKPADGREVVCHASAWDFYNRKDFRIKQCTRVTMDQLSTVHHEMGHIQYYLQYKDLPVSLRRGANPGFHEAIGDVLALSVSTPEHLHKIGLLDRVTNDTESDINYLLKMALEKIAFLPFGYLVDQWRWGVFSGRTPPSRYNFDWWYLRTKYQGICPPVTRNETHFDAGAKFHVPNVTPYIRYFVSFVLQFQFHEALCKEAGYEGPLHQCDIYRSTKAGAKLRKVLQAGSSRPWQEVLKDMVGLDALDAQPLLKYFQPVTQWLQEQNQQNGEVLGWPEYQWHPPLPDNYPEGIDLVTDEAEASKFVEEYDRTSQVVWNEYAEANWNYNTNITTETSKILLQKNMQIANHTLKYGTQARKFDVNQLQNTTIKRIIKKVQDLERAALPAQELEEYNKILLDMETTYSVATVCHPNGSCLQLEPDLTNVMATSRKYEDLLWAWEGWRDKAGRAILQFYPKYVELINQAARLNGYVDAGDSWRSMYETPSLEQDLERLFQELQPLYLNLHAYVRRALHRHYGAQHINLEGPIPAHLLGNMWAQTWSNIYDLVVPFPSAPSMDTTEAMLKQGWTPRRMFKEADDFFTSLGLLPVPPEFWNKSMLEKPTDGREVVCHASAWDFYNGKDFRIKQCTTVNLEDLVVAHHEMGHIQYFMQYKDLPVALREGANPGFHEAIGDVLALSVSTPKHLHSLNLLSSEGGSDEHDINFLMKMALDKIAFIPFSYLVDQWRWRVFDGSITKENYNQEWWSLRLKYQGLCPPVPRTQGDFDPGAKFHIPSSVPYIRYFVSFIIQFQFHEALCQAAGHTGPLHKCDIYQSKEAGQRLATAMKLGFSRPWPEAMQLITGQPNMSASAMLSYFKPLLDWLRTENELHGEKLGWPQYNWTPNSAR

C[C@H](CSC(=O)[C@@H](N)Cc1ccccc1)C(=O)N1CCC[C@H]1C(=O)O [Example 14, N^α -(3-L-phenylalanylthio-2-D-methylpropanoyl)-L-proline]
IC50: 8.8 nM
